Data: PMC7702144, “A Ligand-Directed Nitrophenol Carbonate for Transient in situ Bioconjugation and Drug Delivery” (ChemMedChem, 2020)

How the values were obtained:
avidin [1] = biological target: T1, avidin (Gallus gallus, UniProt P02701); experiment: isothermal titration calorimetry; co-crystal structure […] Å; assay type: binding
T1 construct: gene AVD; homotetramer by known biology (monomers A and C mentioned)

avidin [2] = biological target: T1, avidin; experiment: isothermal titration calorimetry; HABA assay; assay type: binding

T1 sequence (P02701 25-152): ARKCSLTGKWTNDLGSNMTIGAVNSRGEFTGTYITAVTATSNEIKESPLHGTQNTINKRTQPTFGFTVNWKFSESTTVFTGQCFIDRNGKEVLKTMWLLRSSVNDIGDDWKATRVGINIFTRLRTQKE

Row | Kd (avidin [1]) [µM] | Kd (avidin [2]) [µM] | Structure (SMILES)
1 | 0.225 | – | O=C(CCCC[C@@H]1SC[C@@H]2NC(=O)N[C@@H]21)NCCc1cc([N+](=O)[O-])ccc1O [compound 7]
2 | – | 0.104 | CC(C)Cn1cnc2c(NC(=O)OCCOC(=O)Oc3ccc([N+](=O)[O-])cc3CCNC(=O)CCCC[C@@H]3SC[C@@H]4NC(=O)N[C@@H]43)nc3ccccc3c21 [compound 8, LDNPC (8)]
